pIC50: −log10 of the molar value. Values joined by “and” are separate entries in the source; they are usually repeats but may differ in a detail not shown here. Equal entries are not always repeated.
System: 695427-040-R-J1-PDC complex spheroids, viability percent T/C
Test: Anticancer human tumor 695427-040-R-J1-PDC patient-derived colon adenocarcinoma cell line growth inhibition [GQUAD]
Settings: for viability, T/C: stronger effect = lower value; active = viability on the fitted dose curve at most 10% of control; inactive = the rest
Excerpt: DNA G-quadruplex Stabilizer Agents in Combinations in Complex Spheroids
A high-throughput screen of multi-cell type tumor spheroids was designed to identify active combinations of DNA G-quadruplex stabilizer agents and targeted small molecules. Complex spheroids include a stromal component modeled by human endothelial cells (HUVEC) and fibroblasts modeled by human mesenchymal stem cells (MSCs). The concentration ranges selected for each drug and investigational agent were based upon clinically achievable concentrations if the clinical Cmax of the agent was known.
Compounds. The drugs and investigational agents: pidnarulex (CX-5461; NSC782164), APTO-253 (NSC789042), BRACO-19 (NSC847499), peposertib (NSC802822), ceralasertib (NSC780249), elimusertib (NSC800525), camonsertib (NSC841442), AZD-1390 (NSC803789), olaparib (NSC753686), talazoparib (NSC767125), ART-558 (NSC835418), sotorasib (NSC818433), MRTX-1133 (NSC836407), SN-38 (NSC673596), topotecan (NSC609699), etoposide (NSC141540), doxorubicin (NSC123127), gemcitabine (NSC613327), 5-fluorouracil (NSC19893), paclitaxel (NSC125973), vemurafenib (NSC761431), panobinostat (NSC761190), R-306465 (JNJ-16241199; NSC773264), adavosertib (NSC754352), TP-3654 (NSC805149), carboplatin (NSC241240), KSQ-4279 (NSC840948), and staurosporine (NSC755774) were obtained from the National Cancer Institute (NCI) Developmental Therapeutics Program Chemical Repository (34). The FDA-approved anticancer drug set is available from the NCI Developmental Therapeutics Program. […] The stock solutions were prepared in dimethyl sulfoxide (DMSO, Sigma-Aldrich, St. Louis, MO, cat. D2650) at 800-fold the tested concentration and stored at -70 degrees C prior to their use. All drugs and investigational agents were tested over a range starting from a high concentration at or near the clinical Cmax and decreasing in half-log increments. If the clinical Cmax for an agent had not been determined, the highest concentration tested was 10 microM.
2.3 Cell Culture. All cells were maintained in an incubator at 37 degrees C and 5% CO2 with 95% humidity. The PDC lines were cultured according to standard operating procedures established by the NCI PDMR. All PDCs were thawed and cultured in Matrigel-coated flasks prepared with a working solution of 1X Ham's F-12 nutrient mix, without supplementation (Invitrogen, cat. 11765054), 100 U/mL penicillin-streptomycin (Invitrogen, cat. 15140122), and 2.5% Matrigel (Corning Inc., cat. 354248) for the first three passages. The 857933-349-R-J2-PDC line was cultured in 6C/Colon 1B media, which includes advanced DMEM/F-12 (Thermo Fisher Scientific, cat. 12634028), 10 mM HEPES (Thermo Fisher Scientific, cat. 15630080), 1X GlutaMAX supplement (Thermo Fisher Scientific, cat. 35050061), 0.1 mg/mL primocin (InvivoGen, cat. ant-pm-2), 10% defined fetal bovine serum, heat inactivated (HyClone Laboratories Inc., cat. SH30070.03HI), 50% L-WRN conditioned media (ATCC, cat. CRL-3276), 1.25 mM N-Acetyl-L-cysteine (Sigma-Aldrich, cat. A9165), 10 mM nicotinamide (Sigma-Aldrich, cat. N0636), 1X B-27 supplement (Thermo Fisher Scientific, cat. 17504044), 1X N-2 supplement (Thermo Fisher Scientific, cat. 17502048), 10 microM Y-27632 dihydrochloride (Tocris Bioscience, cat. 1254), and 50 ng/mL human EGF recombinant protein (Thermo Fisher Scientific, cat. PHG0311). The 485176-168-R4-J1-PDC line was cultured in Panc media, which includes all 6C/Colon 1B media components plus 100 ng/mL human FGF-10 (Thermo Fisher Scientific, cat. 100-26), 500 nM SB-431542 (Selleckchem, cat. S1067), and gastrin (Tocris, cat. 3006).
[…]

[1] = curve of first compound, second compound 0.0316 µM
[2] = curve of first compound, second compound 0.1 µM
[3] = curve of first compound, second compound 0.316 µM
[4] = curve of first compound, second compound 1 µM
[5] = curve of first compound, second compound 3.16 µM
[6] = curve of first compound, second compound 10 µM
[7] = second compound 0.0316 µM, first compound 0.0316 µM
[8] = second compound 0.0316 µM, first compound 0.1 µM
[9] = second compound 0.0316 µM, first compound 0.316 µM
[10] = second compound 0.0316 µM, first compound 1 µM
[11] = second compound 0.0316 µM, first compound 3.16 µM
[12] = second compound 0.0316 µM, first compound 10 µM
[13] = second compound 0.1 µM, first compound 0.0316 µM
[14] = second compound 0.1 µM, first compound 0.1 µM
[15] = second compound 0.1 µM, first compound 0.316 µM
[16] = second compound 0.1 µM, first compound 1 µM
[17] = second compound 0.1 µM, first compound 3.16 µM
[18] = second compound 0.1 µM, first compound 10 µM
[19] = second compound 0.316 µM, first compound 0.0316 µM
[20] = second compound 0.316 µM, first compound 0.1 µM
[21] = second compound 0.316 µM, first compound 0.316 µM
[22] = second compound 0.316 µM, first compound 1 µM
[23] = second compound 0.316 µM, first compound 3.16 µM
[24] = second compound 0.316 µM, first compound 10 µM
[25] = second compound 1 µM, first compound 0.0316 µM
[26] = second compound 1 µM, first compound 0.1 µM
[27] = second compound 1 µM, first compound 0.316 µM
[28] = second compound 1 µM, first compound 1 µM
[29] = second compound 1 µM, first compound 3.16 µM
[30] = second compound 1 µM, first compound 10 µM
[31] = second compound 3.16 µM, first compound 0.0316 µM
[32] = second compound 3.16 µM, first compound 0.1 µM
[33] = second compound 3.16 µM, first compound 0.316 µM
[34] = second compound 3.16 µM, first compound 1 µM
[35] = second compound 3.16 µM, first compound 3.16 µM
[36] = second compound 3.16 µM, first compound 10 µM
[37] = second compound 10 µM, first compound 0.0316 µM
[38] = second compound 10 µM, first compound 0.1 µM
[39] = second compound 10 µM, first compound 0.316 µM
[40] = second compound 10 µM, first compound 1 µM
[41] = second compound 10 µM, first compound 3.16 µM
[42] = second compound 10 µM, first compound 10 µM
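Also: spheroids exposed to compounds for seven days before readout.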

C=CCn1c(=O)c2cnc(Nc3ccc(N4CCN(C)CC4)cc3)nc2n1-c1cccc(C(C)(C)O)n1 + Cc1cnc(CNC(=O)c2c(=O)c3ccc(N4CCCN(C)CC4)nc3n3c2sc2ccccc23)cn1
5.08: pIC50 [4]
5.76: pIC50 [1]
> 7.50: pIC50 [5] | pIC50 [6]
inactive: viability, T/C [7] 88.3% | viability, T/C [8] 78.8% | viability, T/C [9] 73.2% | viability, T/C [10] 51.7% | viability, T/C [11] 47% | viability, T/C [12] 41.1% | viability, T/C [13] 79.5% | viability, T/C [14] 71% | viability, T/C [15] 65.2% | viability, T/C [16] 49.4% | viability, T/C [17] 53.8% | viability, T/C [18] 40.8% | viability, T/C [19] 74.8% | viability, T/C [20] 55% | viability, T/C [21] 67.6% | viability, T/C [22] 58.5% | viability, T/C [23] 59.3% | viability, T/C [24] 40.6% | viability, T/C [25] 51.6% | viability, T/C [26] 57.2% | viability, T/C [27] 62% | viability, T/C [28] 43% | viability, T/C [29] 55.2% | viability, T/C [30] 49.5% | viability, T/C [31] 32.3% | viability, T/C [32] 49.6% | viability, T/C [33] 48.6% | viability, T/C [34] 33.4% | viability, T/C [35] 28.8% | viability, T/C [36] 28.6% | viability, T/C [37] 9.19% | viability, T/C [38] 15.3% | viability, T/C [39] 32.1% | viability, T/C [40] 25% | viability, T/C [41] 14.7% | viability, T/C [42] 0.75%
5.29: pIC50 [3]
5.61: pIC50 [2]

C=CCn1c(=O)c2cnc(Nc3ccc(N4CCN(C)CC4)cc3)nc2n1-c1cccc(C(C)(C)O)n1
< 5.00 and 5.50: pIC50 (curve of compound)
inactive: viability, T/C (compound 0.0316 µM) 102% and 100% and 86.2% | viability, T/C (compound 0.1 µM) 105% and 85.8% and 89.5% | viability, T/C (compound 0.316 µM) 107% and 86.4% and 87.7% | viability, T/C (compound 1 µM) 105% and 80.5% and 61.6% | viability, T/C (compound 3.16 µM) 107% and 68.6% and 54.9% | viability, T/C (compound 10 µM) 66.5% and 54.9% and 35.4%

Cc1cccc(N(C)C(=O)C2C(O)CCN2c2nc(C)cc(C(F)(F)F)c2C#N)c1 (stereo unspecified) + CN(C)c1ccc(Nc2c3ccc(NC(=O)CCN4CCCC4)cc3nc3cc(NC(=O)CCN4CCCC4)ccc23)cc1
< 5.00: pIC50 [1] | pIC50 [2] | pIC50 [3] | pIC50 [4] | pIC50 [5] | pIC50 [6]
inactive: viability, T/C [7] 111% | viability, T/C [8] 103% | viability, T/C [9] 106% | viability, T/C [10] 99.9% | viability, T/C [11] 107% | viability, T/C [12] 90.3% | viability, T/C [13] 110% | viability, T/C [14] 92.3% | viability, T/C [15] 106% | viability, T/C [16] 102% | viability, T/C [17] 101% | viability, T/C [18] 95.6% | viability, T/C [19] 110% | viability, T/C [20] 101% | viability, T/C [21] 97.3% | viability, T/C [22] 98.2% | viability, T/C [23] 107% | viability, T/C [24] 103% | viability, T/C [25] 104% | viability, T/C [26] 90.7% | viability, T/C [27] 98.3% | viability, T/C [28] 96.1% | viability, T/C [29] 104% | viability, T/C [30] 101% | viability, T/C [31] 93.6% | viability, T/C [32] 94.6% | viability, T/C [33] 95.4% | viability, T/C [34] 95.6% | viability, T/C [35] 106% | viability, T/C [36] 93.9% | viability, T/C [37] 81% | viability, T/C [38] 86.6% | viability, T/C [39] 88.9% | viability, T/C [40] 78.8% | viability, T/C [41] 91.2% | viability, T/C [42] 85.8%

CC(=O)O[C@H]1C(=O)[C@@]2(C)[C@H]([C@H](OC(=O)c3ccccc3)[C@]3(O)C[C@H](OC(=O)[C@H](O)[C@@H](NC(=O)c4ccccc4)c4ccccc4)C(C)=C1C3(C)C)[C@]1(OC(C)=O)CO[C@@H]1C[C@@H]2O + Cc1[nH]c2ccc(F)cc2c1-c1nc2c3cccnc3c3ncccc3c2[nH]1
active: viability, T/C [10] 4.67% | viability, T/C [11] 0.18% | viability, T/C [12] 0.29% | viability, T/C [16] 4.64% | viability, T/C [17] 0.18% | viability, T/C [18] 0.45% | viability, T/C [22] 6.24% | viability, T/C [23] 0.21% | viability, T/C [24] 0.26% | viability, T/C [28] 7.42% | viability, T/C [29] 0.2% | viability, T/C [30] 0.87% | viability, T/C [34] 7.14% | viability, T/C [35] 0.33% | viability, T/C [36] 0.32% | viability, T/C [41] 0.5% | viability, T/C [42] 0.22%
6.33: pIC50 [2] | pIC50 [4]
6.35: pIC50 [3]
6.34: pIC50 [1] | pIC50 [5]
6.30: pIC50 [6]
inactive: viability, T/C [7] 99.4% | viability, T/C [8] 92.9% | viability, T/C [9] 71.6% | viability, T/C [13] 103% | viability, T/C [14] 97.7% | viability, T/C [15] 73.2% | viability, T/C [19] 102% | viability, T/C [20] 91.2% | viability, T/C [21] 69.8% | viability, T/C [25] 89.3% | viability, T/C [26] 87% | viability, T/C [27] 72.2% | viability, T/C [31] 78.3% | viability, T/C [32] 82.9% | viability, T/C [33] 69.4% | viability, T/C [37] 77.1% | viability, T/C [38] 79.7% | viability, T/C [39] 75.7% | viability, T/C [40] 10%

O=C(NO)c1cnc(N2CCN(S(=O)(=O)c3ccc4ccccc4c3)CC2)nc1
inactive: viability, T/C (compound 0.0316 µM) 99.2% and 107% and 96.1% | viability, T/C (compound 0.1 µM) 97.4% and 90.7% and 87.3% | viability, T/C (compound 0.316 µM) 98% and 73.8% and 71.3%

Reference: PubChem BioAssay AID2060492 (Molecular Pharmacology Branch, DTP, NCI, 2025)
